We go through 6 molecules from patent publication US12338283B2, “Methods for targeting the immune checkpoint PD1 pathway for treating pulmonary fibrosis” (CEDARS-SINAI MEDICAL CENTER, priority 2017, dated 2025).

For one assay, the system named is patients with IPF. Conditions: cited from earlier work.
The subject of a further assay is CD274+ IPF fibroblasts. The assay is described as follows: Matrigel invasion assay of flow-sorted IPF lung fibroblasts. It counts as cell-based, human. As for the experimental part: (§1) CD274+ and CD274-fibroblast were flow sorted from fibroblasts of healthy and IPF lungs. The cells were plated onto transwells for migration assay, with and without anti-CD274 antibody (α-CD274) and control IgG. Migratory fibroblasts were fixed, stained, and photographed. […] CD274+ and CD274− fibroblast were flow sorted from fibroblasts of healthy and IPF lungs. The cells were plated onto matrigel chamber for invasion assay, with and without anti-CD274 antibody (α-CD274) and control IgG. Invasive fibroblasts were fixed, stained, and photographed.
FIG. 10A is a schematic representation of an in vitro invasion assay: Lung fibroblasts were seeded in the upper part of transwells. Cells attached to the bottom of Matrigel-coated membrane after 24 h were considered invasive fibroblasts. Cells that remained on top of Matrigel-coated membrane were considered non-invasive fibroblasts. […]
FIG. 19A-J show CD274 and FAK signaling are required for lung fibroblast invasion. […] FIG. 19B and FIG. 19C are graphs that show cell migration index or invasion index, which was calculated as the number of cells attached to the bottom of control or Matrigel-coated membrane after 24 h, normalized to respective CD274^low lung fibroblasts. […]
(§2) CD274+ and CD274− fibroblasts from IPF and healthy lungs were flow sorted and analyzed with an invasion assay.

Another assay concerns CD274+ fibroblasts. The assay is described as follows: Transwell migration assay of flow-sorted IPF lung fibroblasts. Type of assay: cell-based, human. The note with it: CD274^low and CD274^high IPF fibroblasts, 24 h, vs vehicle DMSO (FIG. 19A-C). The protocol: as §1
FIG. 19A-J show CD274 and FAK signaling are required for lung fibroblast invasion. In the experimental results shown in FIG. 19A-FIG. 19C, equal number of cells were seeded in the upper part of transwells and cell migration and invasion assays were performed (n=3 per group). […] Scale bar: 1 mm. FIG. 19B and FIG. 19C are graphs that show cell migration index or invasion index, which was calculated as the number of cells attached to the bottom of control or Matrigel-coated membrane after 24 h, normalized to respective CD274^low lung fibroblasts. […] GAPDH served as equal loading control. FIG. 19E, FIG. 19G, and FIG. 19I show hydroxyproline contents in lung tissues. […]
as §2

The test system of assay [1] is NSG mice injected with CD274^high IPF fibroblasts. Description: Humanized SCID IPF model: lung fibrosis (hydroxyproline, Masson trichrome) in NSG mice injected with IPF fibroblasts. Conditions: mice receiving CD274^high lung fibroblasts, compared with vehicle (CMC-Na) treated mice (FIG. 19E, 19F). Type of assay: in vivo, mouse. As for the experimental part: FIG. 19A-J show CD274 and FAK signaling are required for lung fibroblast invasion. In the experimental results shown in FIG. 19A-FIG. 19C, equal number of cells were seeded in the upper part of transwells and cell migration and invasion assays were performed (n=3 per group). […] Scale bar: 1 mm. FIG. 19B and FIG. 19C are graphs that show cell migration index or invasion index, which was calculated as the number of cells attached to the bottom of control or Matrigel-coated membrane after 24 h, normalized to respective CD274^low lung fibroblasts. […] GAPDH served as equal loading control. FIG. 19E, FIG. 19G, and FIG. 19I show hydroxyproline contents in lung tissues. FIG. 19F, FIG. 19H and FIG. 19J show Masson trichrome staining of collagen on lung sections from NSG mice injected with CD274^low and CD274^high IPF fibroblasts treated with VS4718, vehicle control CMC-Na, or from NSG mice receiving gRNA-CTL or CD274 KO lung fibroblasts (n=6 per group), or from NSG mice injected with CD274^high IPF fibroblasts treated with Q-CD274 (n=12 per group) or isotype control IgG (n=12 for D0-35 IgG, n=11 for D35-63 IgG). Scale bars (FIG. 19F, FIG. 19H): 1 mm (top panel), 100 μm (middle and lower panels). Throughout, data are mean±sem. *P<0.05; **P<0.01 by student's t test (FIG. 19B, FIG. 19C, FIG. 19E, FIG. 19G).
The effect of the inhibition is assessed with hyroxyproline assay. […]

As for `Cc1ccc(=O)n(-c2ccccc2)c1` [Pirfenidone], in the assay with patients with IPF, the disease progression entry is “reduces disease progression” and the “improve lung function or reduce fibrosis” value is “neither”. For the molecule `COC(=O)c1ccc2c(c1)NC(=O)/C2=C(\Nc1ccc(N(C)C(=O)CN2CCN(C)CC2)cc1)c1ccccc1` [nintedanib], in the assay with patients with IPF, the “improve lung function or reduce fibrosis” value is “neither”. For `CC(=O)N[C@@H](CS)C(=O)O` [acetylcysteine], the “clinical benefit in patients with IPF” value in the assay on patients with IPF is given as “some benefits”. Take `COc1ccccc1Oc1c(NS(=O)(=O)c2ccc(C(C)(C)C)cc2)nc(-c2ncccn2)nc1OCCO` [Bosentan]: the “clinical benefit in patients with IPF” value with patients with IPF was “not better than placebo”.

As for `CNC(=O)c1ccccc1Nc1cc(Nc2ccc(N3CCOCC3)cc2OC)ncc1C(F)(F)F` [VS4718], the “cell invasion of lung fibroblasts” value with CD274+ IPF fibroblasts (CD274^low and CD274^high IPF fibroblasts, Matrigel-coated membrane, 24 h, vs vehicle DMSO (FIG. 19A-C)) is “significantly blocked”. In the assay with CD274+ IPF fibroblasts (flow-sorted CD274+ IPF fibroblasts, matrigel chamber), the “invasiveness / invasive phenotype of CD274+ fibroblasts” value is “reduced invasiveness”. In the assay on CD274+ fibroblasts, the “cell migration of lung fibroblasts” value is “significantly blocked”. Besides, the development of fibrosis result in assay [1] is “prevented the development of fibrosis”.

B1: Interferon gamma-1b: interferon-gamma replenishment tested in IPF trials (protein, UniProt P01579 24-161, looked up)
Interferon gamma: QDPYVKEAENLKKYFNAGHSDVADNGTLFLGILKNWKEESDRKIMQSQIVSFYFKLFKNFKDDQSIQKSVETIKEDMNVKFFNSNKKKRDDFEKLTNYSVTDLNVQRKAIHELIQVMAELSPAAKTGKRKRSQMLFRG
Turning to B1, in the assay on patients with IPF, the “survival for patients with IPF” value is “did not improve survival”.
